In patent US20250281452A1, “CHIRAL ARYL PROPIONIC ACID DERIVATIVE AND PHARMACEUTICAL COMPOSITION THEREOF, AND USE” (SHIJIAZHUANG DISCOVERY MEDICINE TECHNOLOGY CO., LTD, priority 2022, published 2025):

Experiments:
HFLS-RA cells = assay: Effect on HFLS-RA cell proliferation activity (CCK-8); type: cell-based, human; conditions: TNF-α 10 ng/mL induced HFLS-RA cells, 72 h after treatment, x ± s
Description: Co-incubation: HFLS-RA cells in a logarithmic growth phase were inoculated in a 96-well culture plate at a density of 3×10^4 cells/ml with an inoculation volume of each well being 100 μL, and cultured for 24 h in a 37° C. and 5% CO2 incubator (the cell adhesion convergence degree reached about 25%) after inoculation, and then a proper amount of sample solutions was added according to the grouping and final concentrations of samples, with 3 duplicated wells set in each group. Before sampling (0 h), group 1 in blank control group was subjected to CCK-8 detection, and the rest groups were cultured for 72 h in an incubator and then subjected to CCK-8 detection.
Detection and calculation: the culture solution was discarded, and 100 μL of culture medium containing a 10% CCK-8 solution was added into each well and incubated for 2 h at 37° C. The light absorption value (OD value) was measured at 450 nm using a microplate reader, and the cell proliferation rate was calculated according to the following formula.
cell proliferation rate=[OD(72 h)−OD(0 h)]/OD(0 h)×100%, Calculation formula
where, OD(0 h) represents the OD value at 0 h, and […].

IL-6 in HFLS-RA cells = assay: Effect on HFLS-RA cytokine secretion, IL-6 (ELISA); type: cell-based, human; parameters: unit not given here; conditions: supernatant content, TNF-α 10 ng/mL, test sample 100 µg/mL, 48 h culture, x ± s
Description: (§1) The experiment was divided into a blank control group (containing no test samples or TNF-α), a TNF-α group (the final concentration of TNF-α for cell incubation was 10 ng/mL), test sample groups (8 groups in total, including DSC4801 group, DSC4807 group, DSC4810 group, DSC4813 group, DSC4821 group and DSC4826 group as well as control 1 group, control 3 group, the final concentrations of test samples for cell incubation and of TNT-α were 100 µg/mL and 10 ng/mL, respectively).
(§2) HFLS-RA cells in a logarithmic growth phase were inoculated in a 6-well culture plate at a density of 5×10^4 cell/ml with an inoculation volume of each well being 200 μL, and cultured for 2 h in a 37° C. and 5% CO2 incubator after inoculation, and then a proper amount of sample solutions was added according to the grouping and the final concentrations of samples, with 3 duplicated wells set in each group. Cell supernatant was collected after further culture of 48 h, and the contents of IL-6 and IL-8 in the supernatant were detected using an ELISA kit.

IL-8 in HFLS-RA cells = assay: Effect on HFLS-RA cytokine secretion, IL-8 (ELISA); type: cell-based, human; parameters: unit not given here; conditions: supernatant content, TNF-α 10 ng/mL, test sample 100 µg/mL, 48 h culture, x ± s
Description: as §1, §2

[1] = Joint tissue distribution after oral gavage; type: in vivo; conditions: SD rats, ankle joint tissue at 0.5, 1, 2 h, trans-OH metabolite detected by LC-MS/MS, compared with control 1 and control 2, P<0.001 (FIG. 1)
Description: 36 healthy male SD rats with a body weight of 200±20 g per rat were fed under conditions of a room temperature of 20-26° C., a humidity of 40%-70% and a light and dark cycle of 12 h/12 h, the rats were fed at liberty in the process of feeding. After adaptive feeding for 3 days, the SD rats were randomly divided into 4 groups (A/B/C/D groups), with 9 rats per group, each group was further randomly divided into 3 time groups, with 3 rats per time group. A suspension (the test samples were suspended with 1% MS, respectively) of the test sample was given to each group via oral gavage, wherein group A was administrated with 3 mg/kg of DSC4813, group B was administrated with 2.94 mg/kg of DSC4821, group C was administrated with 2.47 mg/kg of control 1, and group D was administrated with 2 mg/kg of control 2 (loxoprofen). 3 rats were anesthetized and euthanized in each group at 0.5 h, 1 h and 2 h, respectively after administration. The left and right ankle joints of hind legs were dissected, and the skin at the joints was peeled off. […] To-be-detected substances were detected by LC-MS/MS (compound trans-OH metabolite was detected for groups A/B/C, loxoprofen and all isomers whose carbonyl was reduced to OH for group D, and the results of group D were a sum of concentrations of loxoprofen and all isomers whose carbonyl was reduced to OH).

[2] = after oral administration; cited from earlier work
[3] = single local administration of 1% loxoprofen (100 mg), in 12 hours; cited from earlier work
[4] = cited from earlier work

CC[N+](CC)(CC)CCOC(=O)[C@@H](C)c1ccc(C[C@H]2CCC[C@@H]2O)cc1 [DSC4816]
Cell proliferation rate (HFLS-RA cells): 29.71 ± 2.83%

CCN(CC)CCOCCOC(=O)[C@@H](C)c1ccc(C[C@H]2CCC[C@@H]2O)cc1 [DSC4802]
Cell proliferation rate (HFLS-RA cells): 27.26 ± 2.41%

CC(C(=O)O)c1ccc(CC2CCCC2=O)cc1 (stereo not drawn) [Control 2, loxoprofen, reference compound]
Cell proliferation rate (HFLS-RA cells): 48.25 ± 3.21%

CN(Cc1cnc2nc(N)nc(N)c2n1)c1ccc(C(=O)N[C@@H](CCC(=O)O)C(=O)O)cc1 [Negative control group, methotrexate, reference compound]
Cell proliferation rate (HFLS-RA cells; methotrexate 1 g/mL): 18.37 ± 1.32%

CCN(CC)CCOCC(=O)O[C@H]1CCC[C@@H]1Cc1ccc([C@H](C)C(=O)O)cc1 [DSC4807]
IL-6 (IL-6 in HFLS-RA cells): 48.01 ± 0.77 | Cell proliferation rate (HFLS-RA cells): 22.23 ± 3.04% | IL-8 (IL-8 in HFLS-RA cells): 121.66 ± 4.78

CCOC(=O)[C@@H](C)c1ccc(C[C@H]2CCC[C@@H]2OC(=O)COCCN(CC)CC)cc1 [DSC4811]
Cell proliferation rate (HFLS-RA cells): 22.37 ± 1.78%

CCN(CC)CC(=O)O[C@H]1CCC[C@@H]1Cc1ccc([C@H](C)C(=O)O)cc1 [DSC4821]
Distribution at joints [1]: significantly improved | IL-6 (IL-6 in HFLS-RA cells): 46.58 ± 0.61 | Cell proliferation rate (HFLS-RA cells): 20.96 ± 1.85% | IL-8 (IL-8 in HFLS-RA cells): 117.72 ± 3.43

CC(=O)O[C@H]1CCC[C@@H]1Cc1ccc([C@H](C)C(=O)OCCN2C(=O)CCC2=O)cc1 [DSC4814]
Cell proliferation rate (HFLS-RA cells): 24.36 ± 1.99%

CCN(CC)CCOCCOC(=O)[C@@H](C)c1ccc(C[C@H]2CCC[C@@H]2OC(C)=O)cc1 [DSC4805]
Cell proliferation rate (HFLS-RA cells): 29.28 ± 1.92%

CCN(CC)CCOC(=O)[C@@H](C)c1ccc(C[C@H]2CCC[C@@H]2O)cc1 [DSC4801]
IL-6 (IL-6 in HFLS-RA cells): 46.26 ± 0.35 | Cell proliferation rate (HFLS-RA cells): 31.18 ± 1.82% | IL-8 (IL-8 in HFLS-RA cells): 119.08 ± 4.55

CCOC(=O)[C@@H](C)c1ccc(C[C@H]2CCC[C@@H]2OC(=O)CCN(CC)CC)cc1 [DSC4820]
Cell proliferation rate (HFLS-RA cells): 21.11 ± 3.56%

CCCC(=O)O[C@H]1CCC[C@@H]1Cc1ccc([C@H](C)C(=O)O)cc1 [Control 1, reference compound]
IL-6 (IL-6 in HFLS-RA cells): 67.45 ± 2.68 | Cell proliferation rate (HFLS-RA cells): 39.33 ± 3.46% | IL-8 (IL-8 in HFLS-RA cells): 131.21 ± 6.88

CCN(CC)CCOC(=O)[C@@H](C)c1ccc(C[C@H]2CCC[C@@H]2OC(=O)C(CS)N(C)C)cc1 (stereo partly drawn) [DSC4806]
Cell proliferation rate (HFLS-RA cells): 24.19 ± 2.24%

CCN(CC)CCOC(=O)O[C@H]1CCC[C@@H]1Cc1ccc([C@H](C)C(=O)O)cc1 [DSC4826]
IL-6 (IL-6 in HFLS-RA cells): 47.59 ± 0.45 | Cell proliferation rate (HFLS-RA cells): 21.43 ± 1.94% | IL-8 (IL-8 in HFLS-RA cells): 117.77 ± 4.23

CCN(CC)CCNCCOCC(=O)O[C@H]1CCC[C@@H]1Cc1ccc([C@H](C)C(=O)O)cc1 [DSC4808]
Cell proliferation rate (HFLS-RA cells): 23.11 ± 2.25%

CCOC(=O)[C@@H](C)c1ccc(C[C@H]2CCC[C@@H]2OC(=O)COCC[N+](CC)(CC)CC)cc1 [DSC4817]
Cell proliferation rate (HFLS-RA cells): 23.32 ± 2.46%

CCOC(=O)[C@@H](C)c1ccc(C[C@H]2CCC[C@@H]2OC(=O)C(CS)N(C)C)cc1 (stereo partly drawn) [DSC4812]
Cell proliferation rate (HFLS-RA cells): 23.81 ± 2.21%

C[C@H](C(=O)O)c1ccc(C[C@H]2CCC[C@@H]2OC(=O)C(N)CS)cc1 (stereo partly drawn) [DSC4809]
Cell proliferation rate (HFLS-RA cells): 22.47 ± 1.99%

C[C@H](C(=O)O)c1ccc(C[C@H]2CCC[C@@H]2OC(=O)C(CS)N(C)C)cc1 (stereo partly drawn) [DSC4810]
IL-6 (IL-6 in HFLS-RA cells): 47.88 ± 0.72 | Cell proliferation rate (HFLS-RA cells): 24.95 ± 2.65% | IL-8 (IL-8 in HFLS-RA cells): 118.57 ± 3.92

CC[N+](CC)(CC)CCOC(=O)[C@@H](C)c1ccc(C[C@H]2CCC[C@@H]2O)cc1 [DSC4815]
Cell proliferation rate (HFLS-RA cells): 28.31 ± 2.26%

CCN(CC)CCN(CC)CCOC(=O)[C@@H](C)c1ccc(C[C@H]2CCC[C@@H]2O)cc1 [DSC4803]
Cell proliferation rate (HFLS-RA cells): 30.17 ± 1.85%

C[C@H](C(=O)OCCN1C(=O)CCC1=O)c1ccc(C[C@H]2CCC[C@@H]2O)cc1 [DSC4813]
Distribution at joints [1]: significantly improved | IL-6 (IL-6 in HFLS-RA cells): 46.82 ± 0.63 | Cell proliferation rate (HFLS-RA cells): 22.34 ± 2.72% | IL-8 (IL-8 in HFLS-RA cells): 119.48 ± 4.07

CCOC(=O)[C@@H](C)c1ccc(C[C@H]2CCC[C@@H]2OC(=O)OCCN(CC)CC)cc1 [DSC4825]
Cell proliferation rate (HFLS-RA cells): 22.53 ± 2.66%

CCOC(=O)[C@@H](C)c1ccc(C[C@H]2CCC[C@@H]2OC(=O)COCC[N+](CC)(CC)CC)cc1 [DSC4818]
Cell proliferation rate (HFLS-RA cells): 22.54 ± 2.14%

CCN(CC)CCOC(=O)[C@@H](C)c1ccc(C[C@H]2CCC[C@@H]2OC(C)=O)cc1 [DSC4804]
Cell proliferation rate (HFLS-RA cells): 29.36 ± 2.33%

CCOC(=O)[C@@H](C)c1ccc(C[C@H]2CCC[C@@H]2OC(=O)CN(CC)CC)cc1 [DSC4819]
Cell proliferation rate (HFLS-RA cells): 20.36 ± 2.10%

CC(C(=O)O)c1ccc(CC2CCCC2=O)cc1 (stereo not drawn) [Control 2, loxoprofen]
Time until plasma concentration reaches peak [2]: 30 to 50 min | Dose transferred to a body [3]: 10% | Plasma protein binding rate [4]: 97%
